In patent publication US9951033B2, “Tertiary amines for use in the treatment of cardiac disorders” (Universitetet I Oslo, priority 2012, dated 2018):
Like-named read-outs stand apart in the source and are kept apart here.

How the values were obtained:
[1] = target: GST-AKAP18δ: PLB-biotin interaction (Rattus norvegicus (Rat), UniProt Q6JP77); test: AKAP18δ-PLB AlphaScreen assay; type: binding
Protocol: Stable and optimal assay conditions were determined by cross-titrating GST-AKAP18 δ and biotinylated PLB using 10 μg/ml glutathione acceptor beads and 10 μg/ml streptavidin donor beads in an AlphaScreen assay. The excitation wavelength was 680 nm, with the emission wavelength being 520-560 nm. Signal intensity in each well was registered and the optimal concentration to use was chosen to be the concentration prior to the peak of the signal.
Concentrations to give a reliable signal were determined to be between 2 and 16 nM for AKAP18δ-GST and 4 and 20 nM PLB-biotin for relevant preparations of protein, for example 4 nM and 20 nM, respectively.

[2] = system: metabolically active cells; test: Cell viability luminescence assay; type: cell-based
Protocol: Compound toxicity was measured in a luminescence assay that gives a signal proportional to the amount of metabolically active cells in the sample; the assay was performed as described by the supplier. All synthesized compounds were tested in the viability assay, and viability was registered at 24 hours and 72 hours.

[3] = system: PLB-Ser16 phosphorylation; test: PLB-Ser16 phosphorylation in rat neonatal cardiomyocytes after isoproterenol stimulation (western blot); type: cell-based; conditions: 24 hours prior to isoproterenol 100 nM, 5 minutes
Protocol: Based on data from studies in cardiomyocytes assay using a peptide that blocks AKAP18δ-PLB interaction, it was expected that effective compounds would also cause disruption of the AKAP18δ-PLB complex and decrease PLB-Ser^16 phosphorylation (Lygren et al. in EMBO Reports, volume 8, issue 11, page 1061-1067 (2007). A small selection of hits from the derivatized compounds were tested in this cell-based assay, performed as described in Lygren et al.
Briefly, compounds were added to primary cultures of rat neonatal cardiomyocytes were added compounds about 24 hour prior stimulation with isoproterenol, and amount of phosphorylated Ser^16-PLB was analyzed by western blotting using a pSer^16-PLB phosphospecific antibody. Actin was used as a loading control.
Rat neonatal cardiomyocytes treated with compounds 24 hours prior stimulation with isoproterenol (100 nM, 5 minutes).
Following on Example 53, two compounds, 2g and 3d (FIGS. 9A,B and 9C, respectively), were tested in more detail for their ability to interfere with phosphorylation of phospholamban after stimulation of neonatal (FIGS. 9A and 9C) or adult (FIG. 9B) primary cultures of cardiomyocytes.

[4] = target: SERCA2 (Rattus norvegicus (Rat), UniProt P11507); test: Patch clamp based SERCA2 activity in adult rat cardiomyocytes; type: cell-based; conditions: mesylate salt, 10 uM, in the presence of cAMP
Protocol: Adult rat cardiomyocytes were isolated and perfused with external solution (NaCl 125, CsCl 20, D-glucose 5, MgCl2 1, CaCl2 1.8, Hepes 10, 4-aminopyridine 5, probenecid 2, pH 7.4 by NaCH). Cell dialysis was achieved by 1-2 MΩ patch pipettes, filled with (in mM): CsCl 115, TEACl 20, Hepes 10, MgATP 5, Na2-Phosphocreatinine 5, EGTA 0.04, cAMP 0.005, adjusted to pH=7.2 with CsOH. Compound 2g (mesylate salt dissolved in water) was included at a concentration of 10 uM. Whole-cell Ca fluorescence measured from voltage-clamped cells was performed with Cairn Research Optoscan Monochromator (Excitation 488 nm, emission 515 nm long pass) (Cain Research Ltd., Faverham, UK). By applying 100 ms square voltage step from −45 to 0 mV at 0.125 Hz by an Axociamp 2B amplifier (Axon Instruments, Foster City, Calif., USA), basal Ca transients were recorded, and tau values were obtained by monoexponential fitting of the Ca^2+ extrusion phase from regular transients (τ) and caffeine transients (τcaff) after rapid applications of 10 mM caffeine. SERCA2 rate constant were calculated as: k_SERCA=1/τ−1/τcaff.

[5] = Aqueous solubility of tribenzylamine and salts quantified by HPLC (AUC); type: physicochemical; conditions: free base in water
Protocol: Tribenzylamine and the corresponding salts were dissolved in water and the solubility was quantified (area under curve (AUC)) by HPLC

[6] = screening of compound library, read-out: EC50
[7] = average ± standard deviation (n = 3) or ± half range (n = 2), read-out: EC50 in μM (n)
[8] = average ± standard deviation (n = 3) or ± half range (n = 2), read-out: EC50 (n)

Sequence of GST-AKAP18δ: PLB-biotin interaction (Q6JP77 whole entry): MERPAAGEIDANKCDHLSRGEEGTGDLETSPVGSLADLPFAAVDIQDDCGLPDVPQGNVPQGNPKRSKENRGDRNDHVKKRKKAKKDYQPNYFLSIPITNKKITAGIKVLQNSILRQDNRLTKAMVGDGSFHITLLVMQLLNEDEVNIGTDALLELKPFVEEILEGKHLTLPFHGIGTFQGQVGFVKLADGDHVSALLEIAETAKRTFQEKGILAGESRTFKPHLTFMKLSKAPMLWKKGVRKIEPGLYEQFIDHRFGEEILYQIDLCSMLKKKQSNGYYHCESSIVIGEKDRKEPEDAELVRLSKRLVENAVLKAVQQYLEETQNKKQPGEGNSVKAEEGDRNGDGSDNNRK

SMILES	EC50 [1, 6]	Viability (100 μM) 24 hours [2]	other results
CC(C)(C)c1ccc(CN(Cc2ccc(F)cc2)Cc2nc(C(=O)O)cs2)cc1	41.6 µM		
Cc1ccc(CN(Cc2ccc(F)cc2)Cc2nc(C(=O)O)cs2)cc1	137 µM		
O=C(O)c1csc(CN(CCC(c2ccccc2)c2ccccc2)Cc2ccccc2F)n1	10.6 µM		
O=C(O)c1csc(CN(CCC(c2ccccc2)c2ccccc2)Cc2ccc(F)cc2)n1	18 µM		
CC(C)(C)c1ccc(CN(CCC(c2ccccc2)c2ccccc2)Cc2nc(C(=O)O)cs2)cc1	21.1 µM		
O=C(O)c1csc(CN(Cc2ccc(F)cc2)Cc2cccc(Cl)c2)n1	36.4 µM		
O=C(O)c1csc(CN(Cc2ccc(F)cc2)Cc2ccc(OCc3ccccc3)cc2)n1	39.5 µM		
O=C(O)c1csc(CN(Cc2ccc(F)cc2)Cc2cccc(C(F)(F)F)c2)n1	60.5 µM		
O=C(O)c1csc(CN(Cc2ccc(F)cc2)Cc2ccc(Cl)cc2)n1	94.3 µM		
Cc1ccc(CN(Cc2cccc(C(F)(F)F)c2)Cc2nc(C(=O)O)cs2)cc1	98.3 µM		
COc1ccc(CN(Cc2ccc(F)cc2)Cc2nc(C(=O)O)cs2)cc1	25.6 µM		
Cc1ccc(CN(CCC(c2ccccc2)c2ccccc2)Cc2nc(C(=O)O)cs2)cc1	35.4 µM		
O=C(O)c1ccc(CN(Cc2ccccc2)Cc2ccc(C(=O)O)cc2)cc1	29.6 µM		
Nc1ccc(CN(Cc2ccccc2)Cc2ccc(N)cc2)cc1	3.8 µM		
O=C(O)c1csc(CN(Cc2cccc(C(F)(F)F)c2)Cc2ccccc2F)n1	216 µM		
O=[N+]([O-])c1ccc(CN(Cc2ccccc2)Cc2ccc([N+](=O)[O-])cc2)cc1	7.5 µM		
O=C(Nc1ccc(F)cc1)Nc1ccc(CN(Cc2ccccc2)Cc2ccc(NC(=O)Nc3ccc(F)cc3)cc2)cc1	9.3 µM		
O=C(Nc1ccccc1)Nc1ccc(CN(Cc2ccccc2)Cc2ccc(NC(=O)Nc3ccccc3)cc2)cc1	3.6 µM		

SMILES	EC50 [1, 6]	Viability (100 μM) 24 hours [2]	other results
CCN(CC)c1ccc(CN(Cc2ccccc2)Cc2ccc(N(CC)CC)cc2)cc1	2.9 µM		
Nc1ccc(CN(Cc2ccc(N)cc2)Cc2ccc(N)cc2)cc1	22.2 µM		
Cc1ccc(NC(=O)Nc2ccc(CN(Cc3ccccc3)Cc3ccc(NC(=O)Nc4ccc(C)cc4)cc3)cc2)cc1	2.5 µM		
Cc1ccc(NC(=O)Nc2ccc(CN(Cc3ccc(NC(=O)Nc4ccccc4)cc3)Cc3ccc(NC(=O)Nc4ccc(C)cc4)cc3)cc2)cc1	5.2 µM		
Fc1ccc(CN(Cc2ccncc2)Cc2ccc(F)cc2)cc1 [Example 2a]		0.85	
Oc1ccc(O)c(CN(Cc2ccncc2)Cc2cc(O)ccc2O)c1 [Example 2b]		0.10	EC50 [1, 7]: 12.3 ± 3.08 µM; Effect on PLB phosphorylation in cardiomyocytes [3]: −
COC(=O)c1ccc(CN(Cc2ccccc2)Cc2ccc(C(=O)OC)cc2)cc1 [Example 2f]		0.92	
CN(C)c1ccc(CN(Cc2ccccc2)Cc2ccc(N(C)C)cc2)cc1 [Example 2g]		0.56	EC50 [1, 7]: 1.7 ± 0.91 µM; Effect on PLB phosphorylation in cardiomyocytes [3]: ++; effect on PLB phosphorylation in cardiomyocytes [3]: concentration dependent inhibition of PLB-phosphorylation; SERCA2 activity [4]: increased SERCA2 activity
CC(c1ccccc1)N(Cc1ccc(N(C)C)cc1)Cc1ccc(N(C)C)cc1 (stereo not shown) [Example 2h]		0.91	
CC(C)(C)c1ccc(CN(Cc2ccncc2)Cc2ccc(F)cc2)cc1 [Example 3a]		0.79	
Oc1ccc(O)c(CN(Cc2ccncc2)Cc2ccc(F)cc2)c1 [Example 3b]		0.03	EC50 [1]: approximately the same as for 2b; EC50 [1, 8]: 5.43 ± 1.11 µM
CN(C)c1ccc(CN(Cc2ccccc2)CC(c2ccccc2)c2ccccc2)cc1 [Example 3c]		0.74	EC50 [1, 8]: 0.44 ± 0.18 µM; EC50 ([1]; read-out: EC50): 0.327 µM; Effect on PLB phosphorylation in cardiomyocytes [3]: +; effect on PLB phosphorylation in cardiomyocytes [3]: somewhat weaker than that of 2g
CN(C)c1ccc(CN(Cc2ccccc2)Cc2ccc3c(c2)CCO3)cc1 [Example 3d]		0.58	EC50 [1, 8]: 2.45 ± 0.73 µM; EC50 ([1]; read-out: EC50): 2.79 µM; effect on PLB phosphorylation in cardiomyocytes [3]: did not appear to have an effect
COC(=O)c1ccc(CN(Cc2ccccc2)Cc2ccc(F)cc2)cc1 [Example 3e]		0.57	
O=C(O)c1ccc(CN(Cc2ccccc2)Cc2ccc(F)cc2)cc1 [Example 3f]		0.98	Effect on PLB phosphorylation in cardiomyocytes [3]: +; effect on PLB phosphorylation in cardiomyocytes [3]: did not appear to have an effect
Fc1ccc(CN(Cc2ccccc2)Cc2ccc(-c3ccccc3-c3nn[nH]n3)cc2)cc1 [Example 3g]		0.80	EC50 [1, 8]: 47.1 µM; EC50 ([1]; read-out: EC50): 47.1 µM
CN(C)c1ccc(CN(Cc2ccccc2)Cc2ccc(N(C)C)cc2)cc1 [drawing 177]	2 µM		
c1ccc(CN(Cc2ccccc2)Cc2ccccc2)cc1 [tribenzylamine, Tribenzylamine]			AUC Free base [5]: ≈0 mAu*s
